Tests used:
[1] = system: E. coli harbouring the codA construct; assay: functionality testing of codA gene in E. coli with and without FC; format: cell-based; conditions: codA cassette on pMTL960 plasmid, with vs without FC
Excerpt: (§1) The codA expression cassette was isolated from the vector used by Fox et al., Gene Therapy. (1996) 3:173-178 and cloned into pMTL960. This plasmid was used to test the functionality of the codA gene in E. coli and C. difficile.

[2] = system: C. difficile cells harbouring the codA cassette; assay: functionality testing of codA cassette for counter selection on minimal medium with FC; format: cell-based; conditions: 100 μg/ml FC, modified minimal medium, codA cassette on pMTL960 plasmid, FIG. 4
Excerpt: as §1

With Nc1nc(=O)[nH]cc1F [FC, 5-fluorocytosine] as the compound, how does the “growth of E. coli carrying the codA construct in presence of FC” value [1] read?
The value was “permitting growth in the absence of FC but not in the presence of FC”.

And the “growth of cells expressing codA on minimal medium containing FC” value [2]?
The value was “did not grow”.

— patent US20120100616A1, “METHOD OF DOUBLE CROSSOVER HOMOLOGOUS REC[…] CLOSTRIDIA” (THE UNIVERSITY OF NOTTINGHAM, priority 2009, published 2012)
